In ChEMBL document CHEMBL1201862, “PubChem BioAssay data set” (2004):
Where a name gives a salt, the structure may show the parent alone. Activity calls are given as the source filed them.

Assays:
[1] = HEp-2 cell cytotoxicity, dose response, cytotoxicity control for RSV inhibitor project, HTS (AID 2410); format: functional; settings: human respiratory syncytial virus
[2] = target: Heat shock protein HSP 90-alpha (Homo sapiens, UniProt P07900); format: functional, organism-based
[3] = target: T1, Polyadenylate-binding protein 1 (Homo sapiens, UniProt P11940); test: PABP1 MLLE–PAM2 interaction inhibitors, dose response, miRNA deadenylation inhibitor project, biochemical, fluorescence polarization, Cy5-PAM2 peptide, secondary (AID 602260); format: functional; settings: read-out: IC50_Mean
T1 sequence (P11940 whole entry): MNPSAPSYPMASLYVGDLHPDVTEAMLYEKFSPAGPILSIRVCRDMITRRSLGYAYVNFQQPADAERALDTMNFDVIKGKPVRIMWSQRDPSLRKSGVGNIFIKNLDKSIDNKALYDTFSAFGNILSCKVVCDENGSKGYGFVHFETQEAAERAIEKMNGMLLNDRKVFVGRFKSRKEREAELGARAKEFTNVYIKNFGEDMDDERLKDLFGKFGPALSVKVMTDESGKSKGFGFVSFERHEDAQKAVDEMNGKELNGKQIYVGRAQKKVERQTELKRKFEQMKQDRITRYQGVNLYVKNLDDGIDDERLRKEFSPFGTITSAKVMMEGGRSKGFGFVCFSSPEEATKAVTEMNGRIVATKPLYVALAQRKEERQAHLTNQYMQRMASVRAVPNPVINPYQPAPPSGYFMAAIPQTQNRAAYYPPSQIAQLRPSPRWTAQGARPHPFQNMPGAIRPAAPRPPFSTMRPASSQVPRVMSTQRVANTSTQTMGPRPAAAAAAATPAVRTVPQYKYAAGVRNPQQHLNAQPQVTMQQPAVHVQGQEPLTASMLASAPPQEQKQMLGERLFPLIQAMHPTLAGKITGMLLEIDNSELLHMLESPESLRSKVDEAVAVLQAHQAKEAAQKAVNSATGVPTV

[4] = target: T1, Polyadenylate-binding protein 1; test: PABP1 MLLE–PAM2 binding inhibitor potency, dose response, biochemical, fluorescence polarization, FITC-PAM2 peptide (AID 602259); format: functional; settings: read-out: IC50_Mean
[5] = Luminescence Cell-Based Dose Confirmation HTS to Identify Activators of 5'UTR Stem-Loop Driven Alpha-Synuclein mRNA Translation in H4 Neuroglioblastoma Cells. [Related pubchem assays: 1829 (Project Summary), 1814 (Primary HTS)]; format: functional
[6] = Luminescence Cell-Based Dose Response HTS to Identify Activators of Luciferase Translation or Activity in H4 […] Cells. [Related pubchem assays: 1829 (Project Summary), 1814 (Primary HTS)]; format: functional
H4 = test: Luminescence Cell-Based Dose Response HTS to Identify Activators of 5'UTR Stem-Loop Driven Prion Protein mRNA Translation in H4 Neuroglioblastoma Cells. [Related pubchem assays: 1829 (Project Summary), 1814 (Primary HTS)]; format: functional; settings: Homo sapiens
Cytochrome P450 2D6 = Cytochrome P450 2D6 (Homo sapiens, UniProt P10635);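 note: CYP2D6 member of a cytochrome P450 panel assay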
Chain of Cytochrome P450 2D6 (P10635 whole entry): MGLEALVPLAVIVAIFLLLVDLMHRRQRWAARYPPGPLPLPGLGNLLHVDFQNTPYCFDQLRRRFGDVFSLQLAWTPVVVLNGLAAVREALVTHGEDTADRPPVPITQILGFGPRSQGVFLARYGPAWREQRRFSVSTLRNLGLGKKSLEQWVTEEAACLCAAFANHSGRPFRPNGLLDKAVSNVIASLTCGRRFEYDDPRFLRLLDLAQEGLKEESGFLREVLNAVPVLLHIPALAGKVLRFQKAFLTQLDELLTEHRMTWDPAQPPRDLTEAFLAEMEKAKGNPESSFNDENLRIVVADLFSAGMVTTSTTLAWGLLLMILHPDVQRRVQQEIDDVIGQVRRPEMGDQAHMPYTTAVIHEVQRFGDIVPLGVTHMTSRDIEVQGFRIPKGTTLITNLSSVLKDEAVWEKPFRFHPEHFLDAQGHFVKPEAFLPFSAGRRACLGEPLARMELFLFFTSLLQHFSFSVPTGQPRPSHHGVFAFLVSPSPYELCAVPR

Cytochrome P450 2C9 = Cytochrome P450 2C9 (Homo sapiens, UniProt P11712)
Chain of Cytochrome P450 2C9 (P11712 whole entry): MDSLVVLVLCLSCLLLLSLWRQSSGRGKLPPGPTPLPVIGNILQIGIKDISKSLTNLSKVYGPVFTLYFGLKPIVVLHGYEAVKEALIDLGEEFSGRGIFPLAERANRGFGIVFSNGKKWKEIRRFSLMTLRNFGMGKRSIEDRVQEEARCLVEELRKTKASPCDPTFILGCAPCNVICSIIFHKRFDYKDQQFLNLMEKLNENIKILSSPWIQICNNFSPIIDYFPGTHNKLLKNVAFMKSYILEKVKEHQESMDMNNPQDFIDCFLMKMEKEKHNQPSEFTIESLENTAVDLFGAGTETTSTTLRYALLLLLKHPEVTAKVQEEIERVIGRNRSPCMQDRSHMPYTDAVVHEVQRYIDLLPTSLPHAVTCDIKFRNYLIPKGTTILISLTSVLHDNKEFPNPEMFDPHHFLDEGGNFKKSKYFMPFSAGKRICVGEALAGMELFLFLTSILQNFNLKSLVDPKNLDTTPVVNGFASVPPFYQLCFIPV

Cytochrome P450 2C19 = Cytochrome P450 2C19 (Homo sapiens, UniProt P33261); test: Cytochrome panel assay with activity outcomes. Panel member name: p450-cyp2c19 Compounds with AC50 equal or less than 10 uM are considered active; format: functional; settings: read-out: AC50
Chain of Cytochrome P450 2C19 (P33261 whole entry): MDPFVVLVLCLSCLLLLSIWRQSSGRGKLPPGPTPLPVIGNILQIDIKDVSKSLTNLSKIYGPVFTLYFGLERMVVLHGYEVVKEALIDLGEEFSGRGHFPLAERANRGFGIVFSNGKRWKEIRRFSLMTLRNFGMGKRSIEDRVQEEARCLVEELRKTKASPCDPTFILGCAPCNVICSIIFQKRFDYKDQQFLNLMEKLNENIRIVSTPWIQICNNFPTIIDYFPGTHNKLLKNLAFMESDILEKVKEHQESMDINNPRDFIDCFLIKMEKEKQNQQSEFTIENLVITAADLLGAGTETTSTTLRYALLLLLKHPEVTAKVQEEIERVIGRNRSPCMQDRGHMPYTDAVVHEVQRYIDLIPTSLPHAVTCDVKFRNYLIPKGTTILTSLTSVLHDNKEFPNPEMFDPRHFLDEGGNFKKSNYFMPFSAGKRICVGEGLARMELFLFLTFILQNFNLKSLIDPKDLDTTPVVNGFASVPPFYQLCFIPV

H9c2 = test: cells; format: functional, cell-based; settings: Rattus norvegicus, H9c2, Myocardium;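 note: confirmatory concentration-response retest of ultra-high-throughput screening hits for modulation of myocardial damage; cell death induced by hydrogen peroxide oxidative stress; compound pretreatment for 60 min then peroxide exposure for 2 h; potency is for protecting the cells against peroxide damage rather than for killing them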
P388/ADR = test: cells; format: functional; settings: Mus musculus
SN12K1 = test: cells; format: functional; settings: Homo sapiens
P388 = test: cells; format: functional; settings: Mus musculus
Cytochrome P450 3A4 = Cytochrome P450 3A4 (Homo sapiens, UniProt P08684);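 note: CYP3A4 tested as one member of a cytochrome P450 panel screen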
Chain of Cytochrome P450 3A4 (P08684 whole entry): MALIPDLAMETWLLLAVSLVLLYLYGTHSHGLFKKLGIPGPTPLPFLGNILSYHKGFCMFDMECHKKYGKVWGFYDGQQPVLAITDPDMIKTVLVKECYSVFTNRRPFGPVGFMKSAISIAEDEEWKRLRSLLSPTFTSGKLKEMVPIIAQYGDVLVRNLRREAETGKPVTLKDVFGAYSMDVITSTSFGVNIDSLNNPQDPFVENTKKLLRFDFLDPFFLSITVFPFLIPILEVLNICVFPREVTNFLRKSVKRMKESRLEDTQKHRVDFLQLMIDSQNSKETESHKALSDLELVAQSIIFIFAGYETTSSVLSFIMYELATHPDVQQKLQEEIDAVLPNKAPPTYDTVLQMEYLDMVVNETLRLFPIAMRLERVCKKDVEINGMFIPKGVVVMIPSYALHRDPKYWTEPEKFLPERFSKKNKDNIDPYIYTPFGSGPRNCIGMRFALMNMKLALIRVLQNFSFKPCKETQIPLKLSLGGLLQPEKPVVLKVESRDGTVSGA

INS1 = test: beta cell apoptosis inhibitors, cytokine rescue, dose response, luminescence, retest (AID 449756); format: functional, cell-based; settings: Rattus norvegicus;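 note: cell death triggered by IL-1 beta plus TNF-alpha plus IFN-gamma mixture; protective hits raise ATP signal compared with cytokine alone wells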
Cytochrome P450 1A2 = target: T2, Cytochrome P450 1A2 (Homo sapiens, UniProt P05177);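 note: PubChem cytochrome P450 panel assay, CYP1A2 panel member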
T2 sequence (P05177 whole entry): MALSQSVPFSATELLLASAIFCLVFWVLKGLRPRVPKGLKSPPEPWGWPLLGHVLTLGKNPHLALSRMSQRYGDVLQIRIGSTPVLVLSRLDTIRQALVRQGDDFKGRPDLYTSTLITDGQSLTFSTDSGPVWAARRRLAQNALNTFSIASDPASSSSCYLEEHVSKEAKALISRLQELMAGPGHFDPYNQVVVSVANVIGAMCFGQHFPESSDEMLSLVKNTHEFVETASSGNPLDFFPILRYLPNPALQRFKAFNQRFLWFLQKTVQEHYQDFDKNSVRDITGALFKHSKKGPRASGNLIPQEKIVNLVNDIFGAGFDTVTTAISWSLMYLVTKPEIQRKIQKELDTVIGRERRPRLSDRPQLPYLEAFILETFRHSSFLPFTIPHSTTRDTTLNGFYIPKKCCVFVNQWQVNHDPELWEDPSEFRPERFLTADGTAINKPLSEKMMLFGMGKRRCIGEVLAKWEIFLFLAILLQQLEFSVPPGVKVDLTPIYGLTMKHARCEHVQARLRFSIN

[7] = inhibitors of intracellular T. cruzi replication, confirmation, NIH3T3 host cells, beta-gal luminescence (AID 2044); format: functional, cell-based;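 note: intracellular parasites grown in NIH/3T3 mouse fibroblasts as host cells; luminescent beta-galactosidase reporter signal from transgenic T. cruzi replicating inside host cells; inhibitors lower the luminescence signal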
[8] = cytotoxicity toward NIH3T3 fibroblasts, dose response, counter-screen, cell-based, ATP luminescence, mouse fibroblasts (AID 2010); format: functional;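 note: cells exposed to compound for about 90 hours before reading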
[9] = tested on: Streptococcus sp. 'group A'; test: growth inhibition of control SK(-) GAS strain, dose response, counter-screen for streptokinase expression inhibitor project, luminescence, kanamycin, BacTiterGlo, confirmation (AID 1900); format: functional, organism-based; settings: read-out: EC50
Streptokinase A = target: T3, Streptokinase A (Streptococcus pyogenes serotype M1, UniProt P10520); test: S. pyogenes streptokinase expression inhibitors, potency, dose response, plasminogen activation absorbance, OD405 (AID 1914); format: functional, Streptococcus pyogenes M1 GAS;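 note: secreted streptokinase activity via plasminogen activation per viability signal from cell pellet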
T3 sequence (P10520 whole entry): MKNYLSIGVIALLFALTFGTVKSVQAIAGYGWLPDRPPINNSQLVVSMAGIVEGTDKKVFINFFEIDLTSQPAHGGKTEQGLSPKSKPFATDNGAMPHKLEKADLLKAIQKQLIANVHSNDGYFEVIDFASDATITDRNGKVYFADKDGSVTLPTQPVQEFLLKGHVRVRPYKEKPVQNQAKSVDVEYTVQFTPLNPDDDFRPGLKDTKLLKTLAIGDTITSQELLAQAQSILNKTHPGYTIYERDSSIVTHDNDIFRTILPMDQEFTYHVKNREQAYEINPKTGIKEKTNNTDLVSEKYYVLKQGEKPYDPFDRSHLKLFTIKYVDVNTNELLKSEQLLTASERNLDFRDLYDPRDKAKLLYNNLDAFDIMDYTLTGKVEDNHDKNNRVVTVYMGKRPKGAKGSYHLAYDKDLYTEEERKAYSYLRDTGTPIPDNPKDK

Streptococcus = test: Group A Streptococcus viability loss, dose response, counter-screen for streptokinase expression inhibitor project, luminescence, BacTiterGlo (AID 1915); format: functional, organism-based;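 note: potency for reduction of bacterial viability or growth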

CSc1nnc2c3cc(F)ccc3n(C)c2n1
CC50 [1]: 30 µM (active) | AC50 [2]: 5.56 µM (active)

COc1ccc(NC(=O)CSc2nnc(CCC(=O)O)c(=O)n2N)cc1
IC50 [3]: > 66 µM (inactive) | IC50 [4]: > 66 µM (inactive)

CC(C)n1nnnc1SCC(=O)c1ccc2c(c1)OCCO2
EC50 [5]: 0.276 µM (active) | EC50 [6]: 0.624 µM (active) | EC50 (H4): > 120 µM (not active) | AC50 (Cytochrome P450 2D6): 14.1 µM (inconclusive) | AC50 (Cytochrome P450 2C9): 17.8 µM (inconclusive)

COc1ccc(/C=C2\N=C(c3c(-c4ccccc4)noc3C)OC2=O)cc1OC
AC50 (Cytochrome P450 2C19): 28.2 µM (inconclusive) | AC50 (Cytochrome P450 2D6): 20 µM (inconclusive) | AC50 (Cytochrome P450 2C9): 1 µM (inconclusive)

COc1ccc(N(C(=O)c2cccnc2)S(=O)(=O)c2cccs2)cc1
IC50 (H9c2): > 79 µM (inactive)

Cc1cccc(C(=O)N/N=C2\CS(=O)(=O)N(C)c3ccsc32)c1
IC50 (H9c2): > 79 µM (inactive)

O=C(NC(=S)NC1CCSC1=O)c1ccc([N+](=O)[O-])cc1 (stereo unspecified)
IC50 [3]: > 66 µM (inactive) | IC50 [4]: > 66 µM (inactive)

CC[C@]1(O)C[C@H]2CN(CCc3c([nH]c4ccccc34)[C@@](C(=O)OC)(c3cc4c(cc3OC)N(C=O)[C@H]3[C@@](O)(C(=O)OC)[C@H](OC(C)=O)[C@]5(CC)C=CCN6CC[C@]43[C@@H]65)C2)C1 [VINCRISTINE SULFATE]
GI50 (P388/ADR): 0.171 µM (active) | GI50 (SN12K1): 0.1 µM (active) | GI50 (P388): 0.1 µM (active)

CC1C(=O)C(C)C(c2ccco2)N(N=O)C1c1ccco1 (stereo unspecified)
GI50 (P388/ADR): 63.4 µM (inactive) | GI50 (SN12K1): > 100 µM (inactive) | GI50 (P388): > 100 µM (inactive)

Oc1nc(S)nc2c1CN(Cc1ccc(F)cc1)CC2
IC50 [3]: > 66 µM (inactive) | IC50 [4]: > 66 µM (inactive)

CCCN1C(=O)C(NC(C)=O)c2cc(OC)ccc21 (stereo unspecified)
AC50 (Cytochrome P450 2C19): 22.4 µM (inconclusive) | AC50 (Cytochrome P450 2D6): 0.00562 µM (inconclusive) | AC50 (Cytochrome P450 3A4): 22.4 µM (inconclusive)

CN(C)c1nc(-c2cccc(NS(C)(=O)=O)c2)nc2ccccc12
AC50 (Cytochrome P450 2C19): 20 µM (inconclusive) | AC50 (Cytochrome P450 2D6): 25.1 µM (inconclusive)

CCCCCCSc1ccc([C@H]2N[C@@](Cc3ccccc3)(C(=O)OC)[C@H]3C(=O)N(C)C(=O)[C@@H]23)cc1
AC50 (INS1): 14.1 µM (active) | IC50 (H9c2): > 79 µM (inactive)

CCCc1cc2c(n1Cc1ccc(OC)cc1)C(C)C1CN(C(=O)c3ccccc3)C(C)(C(=O)OC)C21 (stereo unspecified)
AC50 (Cytochrome P450 2C19): 0.00631 µM (inconclusive) | AC50 (Cytochrome P450 2D6): 39.8 µM (inconclusive) | AC50 (Cytochrome P450 1A2): 15.8 µM (inconclusive)

CCCCCC(O)C1C(=O)OC(C)C(O)/C=C/C=C/C=C/C=C/C=C(\C)C(O)C(O)C(O)CC(O)CC(O)CC(O)CC(O)CC1O (stereo unspecified)
GI50 (P388/ADR): 1.95 µM (inactive) | GI50 (SN12K1): 1.44 µM (inactive) | GI50 (P388): 0.904 µM (active)

O=C(Nc1cc(Cl)ccc1-n1cncn1)c1ccc([N+](=O)[O-])s1
EC50 [7]: 0.207 µM (active) | EC50 [8]: > 60 µM (not active) | AC50 [2]: 3.72 µM (active)

c1ccc(-c2ccc(N3CC[C@@]4(CCCNC4)C3)cc2)cc1
AC50 (Cytochrome P450 2C19): 20 µM (inconclusive) | AC50 (Cytochrome P450 2D6): 39.8 µM (inconclusive)

CCOC(=O)C1C(=O)NC(SCC(=O)OC)=C(C#N)C1c1ccccc1OCC (stereo unspecified)
IC50 (H9c2): 67.2 µM (inactive)

COC(=O)[C@@]1(Cc2ccccc2)[C@H]2c3cc(C(=O)N(C)C)n(Cc4cc(F)c(F)c(F)c4)c3C[C@H]2CN1C(=O)c1ccccc1
AC50 (Cytochrome P450 2D6): 25.1 µM (inconclusive)

Cc1cc(NC(=S)Nc2ccccc2)c(NC(=S)Nc2ccccc2)cc1C
GI50 (P388/ADR): 3.3 µM (inactive) | GI50 (SN12K1): 18.5 µM (inactive) | GI50 (P388): 1.41 µM (inactive)

Cc1nc(O)nc(O)c1/C=C/C(=O)O
GI50 (P388/ADR): > 1000 µM (inactive) | GI50 (SN12K1): > 1000 µM (inactive) | GI50 (P388): 631 µM (inactive)

COc1ccc(-c2nn(-c3ccccc3)cc2C(=O)N2CCN(S(=O)(=O)c3cccc(F)c3)CC2)cc1
AC50 [2]: 2.04 µM (active)

COc1ccc(S(=O)(=O)N(C(=O)c2ccncc2)c2ccc(OC(=O)c3ccncc3)cc2)cc1
AC50 [2]: 1.65 µM (active)

CC(C)NC(=O)OCc1c(COC(=O)NC(C)C)c(-c2ccc(Cl)c(Cl)c2)n2c1CCC2
GI50 (P388/ADR): > 100 µM (inactive) | GI50 (SN12K1): > 100 µM (inactive) | GI50 (P388): > 100 µM (inactive)

O=C1c2ccccc2NC(c2c[nH]nc2-c2ccccc2)N1O (stereo unspecified)
IC50 (H9c2): 20.8 µM (active)

Nc1nncs1
GI50 (P388/ADR): 665 µM (inactive) | GI50 (SN12K1): 2120 µM (inactive) | GI50 (P388): 711 µM (inactive)

CC(=O)c1ccc(-c2cnc3c(NC=O)cc(-c4ccc(C(=O)NC5CC5)cc4)cn23)cc1
IC50 (H9c2): > 79 µM (inactive)

CC1CCCN(Cc2nc3c(c(=O)n(C)c(=O)n3C)n2CCCc2ccccc2)C1 (stereo unspecified)
IC50 (H9c2): 12.4 µM (active)

Cc1ccc2nc(-c3ccc(NS(=O)(=O)c4ccc(F)cc4)cc3)sc2c1
EC50 [9]: 3.12 µM (active) | EC50 (Streptokinase A): > 150 µM (not active) | EC50 (Streptococcus): 5.33 µM (active) | AC50 [2]: 4.57 µM (active)

COc1ccccc1CCn1c(=O)c(-c2ccc(F)c(F)c2)nc2cncnc21
AC50 (Cytochrome P450 2D6): 31.6 µM (inconclusive)

COc1cc(/C=C/C(=O)Oc2ccccc2)ccc1C(=O)O/C=C/c1ccccc1
GI50 (P388/ADR): 0.83 µM (active) | GI50 (SN12K1): > 100 µM (inactive) | GI50 (P388): 3.78 µM (inactive)

CC1=C2C(O)C(C(C)C(=O)N(C)C)CCC2(C)C=CC1=O (stereo unspecified)
GI50 (P388/ADR): > 100 µM (inactive) | GI50 (SN12K1): > 100 µM (inactive) | GI50 (P388): > 100 µM (inactive)

O=C(CCN1CCOCC1)/C(=C/c1ccccc1)c1ccccc1
GI50 (P388/ADR): 1.11 µM (active) | GI50 (SN12K1): 3.03 µM (inactive) | GI50 (P388): 2.29 µM (inactive)

COc1cccc(N2CC(C(=O)NCc3nnc(O)c4ccccc34)CC2=O)c1 (stereo unspecified)
IC50 (H9c2): > 79 µM (inactive)
